Measurements reported in US20250154174A1, “BICYCLIC HETEROCYCLES AS MRGPRX2 ANTAGONISTS” (Incyte Corporation, priority 2023, published 2025).

Assays:
Format in all cases: cell-based
[1] = molecular target: T1, MRGPRX2 (Homo sapiens, UniProt Q96LB1); test: MRGPRX2 β-Arrestin assay; design: host or cells: PathHunter CHO-K1; details: PathHunter CHO-K1 MRGPRX2 β-Arrestin cell line; agonist Cortistatin 14 0.25 μM
T1 sequence (Q96LB1 1-330): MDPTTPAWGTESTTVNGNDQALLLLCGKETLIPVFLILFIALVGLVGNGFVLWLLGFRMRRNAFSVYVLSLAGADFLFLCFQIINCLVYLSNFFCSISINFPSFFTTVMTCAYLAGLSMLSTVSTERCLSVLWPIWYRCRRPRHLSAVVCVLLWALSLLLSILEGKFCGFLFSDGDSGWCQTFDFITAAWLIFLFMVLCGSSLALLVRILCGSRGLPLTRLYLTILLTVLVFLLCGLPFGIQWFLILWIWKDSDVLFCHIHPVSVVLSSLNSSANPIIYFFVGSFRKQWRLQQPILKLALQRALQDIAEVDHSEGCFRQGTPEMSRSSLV
Text: This assay measures compound inhibition of β-Arrestin recruitment, which is part of the G protein-independent pathway that results from the ligand-activated GPCR phosphorylation by specific GPCR kinases. The PathHunter CHO-K1 MRPGRX2 B-Arrestin Cell line stably expressing ProLink tagged MRGPRX2 and Enzyme Acceptor Tagged B-Arrestin was purchased from Eurofins DiscoverX, (Fremont, CA).
The cells were maintained in culture medium from the Europhins DiscoverX Cell Culture Kit-107 which includes FBS, hygromycin B and G418. For the assay, the cells were harvested and were resuspended with Cell Plating Reagent 2 (Eurofins DiscoverX). Cells were added 10000 cells in 25 μL/well to a 384-well black cell culture plate (Greiner VWR, Radnor, PA) which contained 125 nL/well of compound at a selected serially diluted concentration range or DMSO. The plate was incubated at 37° C. with 5% CO2 for 1 h. 2 μL/well of agonist Cortistatin 14 was diluted in Protein Dilution Buffer, (Eurofins DiscoverX) for a final concentration of 0.25 μM, was added and the plate was incubated at 37° C. with 5% CO2 for 90 min. 14 μL/well of Detection Reagent Mix (PathHunter Detection Kit, Eurofins DiscoverX) was added to the plates and further incubated for 1 h in the dark. Plates were read on the PHERAstar microplate reader (BMG Labtech Cary, NC) measuring luminescence 0.1 to 1 s per well. […]

[2] = molecular target: T1, MRGPRX2; test: MRGPRX2 IP1 HTRF assay; design: host or cells: CHO-K1; details: CHO-K1 cells stably expressing human MRGPRX2; agonist Cortistatin 14 1 μM; IP1 accumulation
Protocol: This assay measures compound inhibition of myo-Inositol 1 phosphate (IP1) accumulation in CHO-K1 cells. Chinese hamster ovary (CHO-K1) cells stably expressing human MRGPRX2 were purchased from GenScript (Piscataway, NJ).
For the HTRF IP1 determination, an IP-One GqKit (Perkin Elmer Cisbio, Waltham, MA), which includes all reagents and buffers in this protocol, was used. The cells were maintained in culture medium (Ham's F-12K) containing 10% (v/v) FBS, and 200 μg/mL Zeocin. For the assay, the cells were harvested and resuspended in culture medium with 2% FBS and without Zeocin, then were passed through a 40 μm filter. Cells were added at 20000 cells in a 5 μL/well to a 384-well white small volume cell culture plate (Greiner VWR, Radnor, PA) which contained 50 nL/well of test compound serially diluted at a selected concentration range in DMSO. 5 μL/well of prepared 2× Stimulation Buffer2 was then added to plates and was incubated at 37° C. with 5% CO2 for 1 h. 5 μL/well of agonist Cortistatin 14 (Bio-TechneR&D Systems, Minneapolis, MN) in 1×Stimulation Buffer 2, for a 1 μM final concentration, was then added to plates and incubated at 37° C. with 5% CO2 for 1 h. 6 μL/well of 1:20 diluted Detection Reagent Mix (d2 and Cryptate) was added to the plates and incubated for 1 h in the dark. Plates were read on the PHERAstar microplate reader (BMG Labtech Cary, NC) to determine the HTRF ratio of the acceptor and donor emission signals. The IP1 concentrations were calculated from a standard curve following the IP-One GQ kit instructions. Wells with DMSO only and wells with high concentration of reference antagonist were used as controls for normalization. Compound IC50 curves were globally fitted with 3- or 4-parameter Hill equation in a Genedata Screener (Genedata Basel, Switzerland).

[3] = molecular target: T1, MRGPRX2; test: MRGPRX2 FLIPR calcium mobilization assay; design: host or cells: CHO-K1; details: CHO-K1 cells stably expressing human MRGPRX2; agonist Cortistatin-14 at EC80; Ca2+ release
Protocol: Chinese hamster ovary (CHO-K1) cells stably expressing human MRGPRX2 were purchased from Genescript (Piscataway, NJ). The cells were maintained in culture medium (Ham's F-12K) containing 10% (v/v) FBS, 200 μg/mL Zeocin, 100 units/mL penicillin G and 100 μg/mL streptomycin (Life Technologies, Carlsbad, CA). For the assay, the cells were harvested and resuspended with culture medium without Zeocin before plating at 8000 cells per well in 20 μL in 384-well black clear bottom cell culture plates (VWR, Radnor, PA). After 24 h culture at 37° C. and 5% CO2, the cells were loaded with 20 μL/well of calcium dye (FLIPR Calcium 6 Assay Kit, Molecular Devices, San Jose, CA) diluted in loading buffer (1× Hank's Balanced Salt Solution (HBSS), 5 mM probenecid, 20 mM 4-(2-hydroxyethyl)-1-piperazineethanesulfonic acid (HEPES), pH 7.4, VWR, Radnor, PA) followed with 45 min. incubation at 37° C. and 40 min. at r.t. in the dark. Cells were then treated with the addition of 10 uL/well test compounds with a range of increasing concentrations diluted in the assay buffer (1×HBSS, 20 mM HEPES, pH 7.4, VWR, Radnor, PA) with FLIPR Penta (Molecular Devices. San Jose, CA) and incubated for 30 min. at r.t. Ca^2+ release was measured with FLIPR Penta with 10 s basal fluorescence measurement, then 12.5 μL of 5× agonist Cortistatin-14 (Tocris, Minneapolis, MN) at final concentration corresponding to the EC80 were added followed with continued fluorescence signal monitoring for an additional 110 s. The base line adjusted (median of first 10s base line) max value of the Relative Fluorescence Unit (RFU) was plotted against compound concentrations. Wells with no compound were served as the positive controls, and wells with high concentration of reference antagonist were used as negative controls. IC50 curves were globally fitted with 3- or 4-parameter Hill equation in a Genedata Screener (Genedata Basel, Switzerland).

Measured: IC50

FC(F)(F)c1cn2c(N[C@H]3CCC[C@@H](Nc4nccc5ncccc45)C3)cccc2n1 [Example 3, (1R,3S)—N^1-(1,6-Naphthyridin-5-yl)-N^3-(2-(trifluoromethyl)imidazo[1,2-a]pyridin-5-yl)cyclohexane-1,3-diamine]
0.1 to 100 nM: all assays above

FC(F)(F)c1cn2c(N[C@H]3CC[C@@H](Nc4nccn5cncc45)CC3)cccc2n1 [Example 5, (1s,4s)-N^1-(Imidazo[1,5-a]pyrazin-8-yl)-N^4-(2-(trifluoromethyl)imidazo[1,2-a]pyridin-5-yl)cyclohexane-1,4-diamine]
0.1 to 100 nM: all assays above
